We go through 14 compounds from patent US7754718B2 (priority 2004, dated 2010).

Molecules are shown by their SMILES. Like-named read-outs stand apart in the source and are kept apart here.

One series relates to HSV-1. Description: In vitro antiviral assay for HSV-1. The series is classed as cell-based, Herpes Simplex Virus 1. On the procedure: (§1) The antiviral assays for HBV, (Doong et al., 1991, Proc. Natl. Acad. Sci. U.S.A. 88:8495-8499) HSV-1, (Bastow et al., 1983, Antimicrob. Agents Chemother. 23: 914-917) HSV-2, (Bastow et al., 1983, Antimicrob. Agents Chemother. 23:914-917) EBV, (Yao et al., 1993, Antimicrob. Agents Chemother. 37:1420-1425), CMV (Andreoni et al., 2002, J. Med. Virol. 67:33-40) and HIV (Mellors et al., 1992, Mol. Pharmacol. 41: 446-451) were performed according to the previously reported procedures. Anti-HCV activities were tested in Huh-Luc/neo cell line. Cells were seeded into 48-well plates and grown until confluent. Different concentrations of drugs were added into media (DMEM, 10% dFBS) and incubated for 3 days. At the end of 3-day treatment, medium were removed and 50 μl of Passive lysis buffer (Promega) were added. Cell lysate was shaken at room temperature for 15 min. 30 μl/well of cell lysate was transferred to another 96-well plate, 100 μl/well of luciferase activity assay substrate was added into plate and read by a luminometer (Amersham) immediately.

A further series relates to HSV-2. Description: In vitro antiviral assay for HSV-2. The series is classed as cell-based, Herpes Simplex Virus 2. On the procedure: as §1
The next series relates to HBV. The series can be described thus: In vitro antiviral assay for HBV (Table 1). To be noted: Hepatitis B virus, read-out: Antiviral Activities (EC50, μM) HBV. The series is classed as cell-based, Hepatitis B virus. On the procedure:
as §1

A further series concerns HCV. Description: Anti-HCV activity in Huh-Luc/neo cell line, luciferase activity after 3-day treatment. The class given is cell-based, Hepatitis C virus. To be noted: Hepatitis C virus, 72 h; for EC50: read-out: Antiviral Activities (EC50, μM) HCV. On the procedure:
as §1

For a further series, the system named is EBV. Description: In vitro antiviral assay for EBV. The class given is cell-based, Epstein-Barr Virus. To be noted: human gammaherpesvirus 4, read-out: Antiviral Activities (EC50, μM) EBV. On the procedure:
as §1

In the next series the test system is HIV. Description: In vitro antiviral assay for HIV. The class given is cell-based, human immunodeficiency virus. To be noted: Human immunodeficiency virus 1, read-out: Antiviral Activities (EC50, μM) HIV, in vitro; (T) after a value means toxic. On the procedure:
as §1

The nature of series [1]: Cell cytotoxicity assay on MT-2 cells. The class given is cell-based. To be noted: human, read-out: Cytotoxity (ID50, μM) MT-2. On the procedure: (§2) Cytotoxicities of test compounds on MT-2 (Mellors et al., 1992 Mol. Pharmacol. 41:446-451) and CEM (Grove et al., 1995, Cancer Res. 55:3008-3011) cells were determined according to the previously reported procedures. Hepg2 cells were seeded at a density of 10^4 cells/ml/well in 24-well plates and cultured in MEME supplemented with 10% FBS at 37° C. and 5% CO2. Each test compound at different concentrations was added on the second day of the culture and the cells were incubated for another 3 days. At the end of the incubation period, the medium was removed and 0.5 ml of 0.5% methylene blue in 50% ethanol (v/v) was added to each well and set at room temperature for 30-60 minutes. The methylene blue was removed; the plates were washed with water and allowed to air dry. Once dry, 1% sarcosyl was added to dissolve the stained cell layer. The absorbance at 595 nm was measured with a microplate reader (Molecular Devices Corp. Sunnyvale, Calif.). The cytotoxicity to CEM cell was calculated as described previously (Grove et al., 1995, Cancer Res. 55 (14): 3008-3011).

Series [2] is described as follows: Cell cytotoxicity assay on CEM cells. To be noted: human, read-out: Cytotoxity (ID50, μM) CEM. The class given is cell-based. On the procedure: as §2
The mark [3] stands for this setting: Huh-Luc/neo cells, 3 days, read-out: HCV percent of inhibition.
Setting [4] is: Human alphaherpesvirus 1, read-out: Antiviral Activities (EC50, μM) HSV-1.
[5] abbreviates: Human alphaherpesvirus 2, read-out: Antiviral Activities (EC50, μM) HSV-2.
Setting [6] is: Huh-Luc/neo cells, 3 days, given as a bound only.

In the case of `Nc1nc2c(ncn2COCCO)c(=O)[nH]1` [ACV, reference compound], the EC50 – broadly, the concentration at which the effect is half-maximal – was 8 µM in the series with HSV-1 (in vitro, read-out: Antiviral Activities (EC50, μM) HSV-1) and 21 µM with HSV-2 (in vitro, read-out: Antiviral Activities (EC50, μM) HSV-2).

For `O=C(OCc1ccccc1)c1cc2ccc3c(c2c(-c2ccc4c(c2)OCO4)c1COCc1ccccc1)OCO3` [Compound 4, 9-Benzo[1,3]dioxol-5-yl-8-benzyloxymethyl-naphtho[1,2-d][1,3]-dioxole-7-carboxylic acid benzyl ester], the EC50 was over 10 µM with HBV; over 50 µM in the series on HSV-1 (setting [4]); over 50 µM in the series with HSV-2 (setting [5]); over 20 µM in the series with EBV; over 100 µM in the series on HIV. Moreover, the inhibition (commonly the percentage by which the read-out fell short of the control) at 10 µM in the series with HCV (setting [3]) amounted to 71%. The IC50 is over 100 µM in series [1] and over 50 µM in series [2].

`O=C(OCCCOCc1ccccc1)c1cc2ccc3c(c2c(-c2ccc4c(c2)OCO4)c1COCc1ccccc1)OCO3` [Compound 6, 9-Benzo[1,3]dioxol-5-yl-8-benzyloxymethyl-naphtho[1,2-d][1,3]dioxole-7-carboxylic acid 3-benzyloxy-propyl ester]: the EC50 with HBV was over 10 µM; in the series on HSV-1 (setting [4]), over 50 µM; in the series with HSV-2 (setting [5]) it was over 50 µM; in the series with EBV, over 20 µM; with HIV, over 100 µM. In addition, the inhibition at 10 µM in the series on HCV (setting [3]) stood at 55%. Besides, the IC50 was over 100 µM in series [1] and over 50 µM in series [2].

For `Cc1c(C(=O)OCCCO)cc2ccc3c(c2c1-c1ccc2c(c1)OCO2)OCO3` [Compound 7, 9-Benzo[1,3]dioxol-5-yl-8-methyl-naphtho[1,2-d][1,3]dioxole-7-carboxylic acid 3-hydroxy-propyl ester], the EC50 was over 23 µM in the series on HBV; over 10 µM with HCV (setting [6]); over 25 µM in the series on HSV-1 (setting [4]); over 25 µM in the series with HSV-2 (setting [5]); over 15 µM in the series with EBV; over 10 µM in the series on HIV. Moreover, the IC50 in series [1] turned out to be 10 µM; in series [2] it was 46 µM.

Take `CNC(=O)c1cc2ccc3c(c2c(-c2ccc4c(c2)OCO4)c1C(=O)O)OCO3` [Compound 13, 9-Benzo[1,3]dioxol-5-yl-7-methylcarbamoyl-naphtho[1,2-d][1,3]dioxole-8-carboxylic acid]: the EC50 in the series on HBV is over 20 µM; with HCV (setting [6]), over 10 µM; in the series on HSV-1 (setting [4]) it was 12 µM; in the series with HSV-2 (setting [5]), over 25 µM; in the series on EBV, over 20 µM; with HIV, over 26 µM. For the same compound, the IC50 stood at 26 µM in series [1] and 29 µM in series [2].

Consider `CN(C)C(=O)c1cc2ccc3c(c2c(-c2ccc4c(c2)OCO4)c1C(=O)O)OCO3` [Compound 14, 9-Benzo[1,3]dioxol-5-yl-7-dimethylcarbamoyl-naphtho[1,2-d][1,3]dioxole-8-carboxylic acid], for which the EC50 was over 10 µM in the series on HBV; over 10 µM in the series on HCV (setting [6]); over 50 µM with HSV-1 (setting [4]); over 50 µM in the series with HSV-2 (setting [5]); over 20 µM with EBV; over 70 µM in the series with HIV. Moreover, the IC50 in series [1] came out at 70 µM; in series [2] it was 76 µM.

As to `COc1ccc(-c2c(C(=O)O)c(C(N)=O)cc3ccc4c(c23)OCO4)cc1OC` [Compound 15, 7-Carbamoyl-9-(3,4-dimethoxy-phenyl)-naphtho[1,2-d][1,3]dioxole-8-carboxylic acid], the EC50 with HBV was 0.8 µM; in the series on HSV-1 (setting [4]) it was 0.8 µM; in the series with HSV-2 (setting [5]), over 3 µM; in the series with EBV, over 20 µM; in the series on HIV it was over 10 µM. Moreover, in the series on HCV (at 3 μM, Huh-Luc/neo cells, 3 days, read-out: HCV percent of inhibition), the inhibition at 3 µM stood at 64%. For the same compound, the IC50 is 10 µM in series [1] and 3 µM in series [2].

Regarding `O=C1NCc2c1cc1ccc3c(c1c2-c1ccc2c(c1)OCO2)OCO3` [Compound 18, 10-Benzo[1,3]dioxol-5-yl-8,9-dihydro-1,3-dioxa-8-aza-dicyclopenta[a,g]naphthalen-7-one], the EC50 was 0.08 µM with HBV; 0.29 µM in the series with HSV-1 (setting [4]); 0.16 µM in the series with HSV-2 (setting [5]); 11 µM in the series on EBV; over 4 µM with HIV. Also, the inhibition at 1 µM with HCV (at 1 μM, Huh-Luc/neo cells, 3 days, read-out: HCV percent of inhibition) stood at 55%. Besides, the figures for the IC50 in series [1] and in series [2] were 4 µM and 4.5 µM, respectively.

Regarding `O=C1c2cc3ccc4c(c3c(-c3ccc5c(c3)OCO5)c2CN1CCCOCc1ccccc1)OCO4` [Compound 20, 10-Benzo[1,3]dioxol-5-yl-8-(3-benzyloxy-propyl)-8,9-dihydro-1,3-dioxa-8-aza-dicyclopenta[a,g]naphthalen-7-one], the EC50 was over 20 µM in the series with HBV; 13 µM in the series on HSV-1 (setting [4]); over 20 µM in the series on HSV-2 (setting [5]); over 20 µM in the series on EBV; over 28 µM in the series with HIV. In the series on HCV (setting [3]), the inhibition at 10 µM is 85%. Besides, the IC50 in series [1] is 28 µM; in series [2], 67 µM.

`CN1C(=O)c2cc3ccc4c(c3c(-c3ccc5c(c3)OCO5)c2C1=O)OCO4` [Compound 23]: the EC50 in the series with HBV is over 10 µM; with HCV, over 10 µM; in the series with HSV-1 (setting [4]), over 50 µM; in the series with HSV-2 (setting [5]), over 50 µM; with EBV, over 20 µM; in the series with HIV, over 100 µM. In addition, the IC50 in series [1] and in series [2] was over 100 µM each time.

Regarding `CC(=O)NN1Cc2c(cc3ccc4c(c3c2-c2ccc3c(c2)OCO3)OCO4)C1=O` [Compound 26, N-(10-Benzo[1,3]dioxol-5-yl-7-oxo-7,9-dihydro-1,3-dioxa-8-aza-dicyclopenta[a,g]naphthalen-8-yl)-acetamide], the EC50 in the series on HBV was 1 µM; in the series on HCV (setting [6]), over 10 µM; in the series on HSV-1 (setting [4]), 5 µM; with HSV-2 (setting [5]) it was 10 µM; in the series on EBV, 13 µM; in the series with HIV, over 7 µM. Also, the values for the IC50 in series [1] and in series [2] were 7 µM and 40 µM, respectively.

Regarding `CC(=O)NN1Cc2cc3ccc4c(c3c(-c3ccc5c(c3)OCO5)c2C1=O)OCO4` [Compound 27, N-(10-Benzo[1,3]dioxol-5-yl-9-oxo-7,9-dihydro-1,3-dioxa-8-aza-dicyclopenta[a,g]naphthalen-8-yl)-acetamide], the EC50 with HBV is over 20 µM; with HSV-1 (setting [4]), 17 µM; in the series on HSV-2 (setting [5]), 40 µM; in the series with EBV, over 20 µM; in the series with HIV, over 25 µM. The inhibition at 10 µM in the series on HCV (setting [3]) came to 25%. The IC50 in series [1] worked out at 25 µM; in series [2] it was 32 µM.

Turning to `O=c1[nH][nH]c(=O)c2c(-c3ccc4c(c3)OCO4)c3c4c(ccc3cc12)OCO4` [Compound 28, 11-Benzo[1,3]dioxol-5-yl-8,9-dihydro-1,3-dioxa-8,9-diaza-cyclopenta[a]anthracene-7,10-dione], the concentration giving a half-maximal response (EC50) in the series on HBV is 0.03 µM; with HSV-1 (setting [4]), 1.4 µM; in the series with HSV-2 (setting [5]), 1.4 µM; in the series on EBV it was over 25 µM. In addition, in the series on HCV (setting [3]), the inhibition at 10 µM turned out to be 74%. Further, the IC50 in series [1] worked out at 16 µM; in series [2], 50 µM.

With `Nc1ccn([C@H]2CC[C@@H](CO)O2)c(=O)n1` [ddC, 2′,3′-Dideoxycytidine, reference compound], in the series on HIV, the EC50 turned out to be 0.8 µM. In addition, the results for the IC50 in series [1] and in series [2] were 70 µM and 5 µM, respectively.
